This note sets out measurements from US10906906B2, “Organic compounds” (INTRA-CELLULAR THERAPIES, INC., priority 2016, dated 2021).

This experiment has as its target μ (MOP) (h) receptor (Homo sapiens, UniProt P35372). Kind of experiment: Cellular functional assay, μ (MOP) (h) antagonist effect (cAMP, HTRF). It is filed as cell-based. Particulars: human recombinant (CHO cells). As to the method: The compounds are tested at several concentrations to determine their IC50 or EC50. Cellular agonist effects are calculated as percent of control response to a known reference agonist for each target and cellular antagonist effect is calculated as a percent inhibition of control reference agonist response for each target. The following assay is performed to determine the effect of the Compound of Formula II-B on the μ (MOP) (h) receptor: [table] The results are expressed as a percent of control agonist response: and as a percent inhibition of control agonist response: obtained in the presence of the Compound of Formula II-B or II-C. […] For the antagonists, the apparent dissociation constants (KB) are calculated using the modified Cheng Prusoff equation: [formula] where A=concentration of reference agonist in the assay, and E[…]=EC50 value of the reference agonist.
For orientation: TR-FRET usually uses a lanthanide donor and a delayed reading to cut background.

The structures appear in SMILES notation. Where only a bound is given, the exact number is not on record here.

Chain of μ (MOP) (h) receptor (P35372 whole entry): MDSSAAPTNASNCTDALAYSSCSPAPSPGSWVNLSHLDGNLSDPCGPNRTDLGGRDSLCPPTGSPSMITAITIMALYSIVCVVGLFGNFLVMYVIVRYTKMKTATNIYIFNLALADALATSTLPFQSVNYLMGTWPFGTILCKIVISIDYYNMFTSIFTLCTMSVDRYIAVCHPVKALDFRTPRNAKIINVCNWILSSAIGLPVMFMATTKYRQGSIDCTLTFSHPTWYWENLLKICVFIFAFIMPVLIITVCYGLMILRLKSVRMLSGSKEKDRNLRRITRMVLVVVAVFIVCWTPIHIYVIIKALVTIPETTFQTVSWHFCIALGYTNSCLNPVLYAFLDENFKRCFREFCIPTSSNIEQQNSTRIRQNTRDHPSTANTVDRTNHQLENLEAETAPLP

The term IC50 denotes the concentration that gives 50% inhibition. For `Fc1ccc2c(CCCN3CC[C@H]4[C@@H](C3)c3cccc5c3N4CCN5)n[nH]c2c1` [Formula II-C], the concentration for half-maximal inhibition (IC50) (unit inferred, highest concentration tested, DAMGO (20 nM)) was over 10000 nM.

In general, Kb refers to the equilibrium dissociation constant of an antagonist, usually derived from a functional assay. Regarding `CN1C(=O)CN2c3c(cccc31)[C@@H]1CN(CCCc3n[nH]c4cc(F)ccc34)CC[C@@H]12` [Formula II-B], the IC50 (DAMGO (20 nM) stimulus, cAMP, 10 min @ 37° C.) was 1300 nM. Besides, for the setting “modified Cheng Prusoff equation, DAMGO (20 nM), read-out: μ (MOP) (h) (antagonist effect) KB (apparent dissociation constant)”, the Kb amounted to 140 nM.
